Data reported in publication PMC9753513 (ACS Omega, 2022).

Target: T1, human dihydrofolate reductase (hDHFR) (Homo sapiens, UniProt P00374)
T1 sequence (P00374 1-187): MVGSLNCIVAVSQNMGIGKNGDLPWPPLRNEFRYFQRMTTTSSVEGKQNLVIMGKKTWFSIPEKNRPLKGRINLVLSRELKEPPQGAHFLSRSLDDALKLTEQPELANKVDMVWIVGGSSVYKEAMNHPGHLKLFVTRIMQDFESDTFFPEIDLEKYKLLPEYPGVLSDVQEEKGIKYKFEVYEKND
Assay: hDHFR inhibition assay
Type: biochemical

IC50: 280 nM
SMILES: CN(C)c1ccc(C=NNC(=O)CSc2nc3sc4c(c3c(=O)n2-c2ccccc2)CCCCC4)cc1 [compound 23, N′-[4-(Dimethylamino)benzylidene]-2-[(4-oxo-3-phenyl-6,7,8,9-tetrahydro-3H-cyclohepta[4,5]thieno[2,3-d]pyrimidin-2-yl)thio]acetohydrazide]
